Measured values taken from patent US20090215669A1, “COMPOSITIONS AND METHODS FOR TREATMENT OF DIABETES” (DIA-B TECH LIMITED, priority 2005, published 2009).
≈ marks a conversion by molar mass, not a printed value. Where two headings read alike, the source gives them in different places. Marks after values point to notes of the source that are not given here. Peptide text beside a SMILES is read from it.

Columns and labels:
[1] = system: female Zucker fa/fa rats; assay: Intravenous injection of female Zucker fa/fa rats: blood glucose, serum insulin, C-peptide, triglyceride; type: in vivo, rat; details: for Change in Serum Triglyceride levels compared to the 0 time point: ISF402 alone 4.5 mg/kg, insulin, insulin + ISF402 1.5 mg/kg, mean ± SEM (n = 5); for maximum reduction in blood glucose: 45 minutes after administration
[2] = system: female Zucker fa/fa rats; assay: Intraperitoneal injection of insulin with ISF402 in female Zucker fa/fa rats; type: in vivo, rat; details: IP, 2 U/kg bovine insulin
Experimental: Female Zucker fa/fa rats were purchased from Monash Animal Services (Monash University, Clayton, Australia). Rats were housed in the Biochemistry and Molecular Biology Animal House (Monash University, Victoria, Australia) and allowed to acclimatize for 7 days in an environmentally controlled room at 22° C. Rats were fed normal chow and water ad libitum. All experiments were performed according to Monash University Animal Care and Ethics Committee guidelines and approved by the Monash University Animal ethics committee.
Rats of 16-18 weeks of age were fasted overnight with free access to water then anaesthetised with pentobarbitone (Nembutal, Phone Merieux, QLD, Australia) administered intraperitoneally (IP) at 35 mg/kg body weight. Blood glucose was monitored using Medisense glucometers (Abbott Laboratories, Abbott Park, Ill.) for one hour prior to administration of test substances. ISF402 was administered at 3 mg/kg by IP with 2 U/kg of bovine insulin (n=6) and controls were injected IP with insulin alone (n=8). Two experiments were performed where ISF402 was given orally. In the first experiment, controls were given saline orally by gavage (n=5) and the test group were given ISF402 orally at 15 mg/kg (n=5). After 15 minutes, insulin (2 U/kg) was injected IP. […] For both experiments, after administration of peptide blood was collected from the tail vein and glucose measured immediately. […]

[3] = system: male Zucker fa/fa rats; assay: Intravenous injection of male Zucker fa/fa rats: blood glucose, serum insulin, C-peptide; type: in vivo, rat; details: 1 U/kg of bovine insulin iv
Experimental: The Monash University Animal Ethics Committee approved all procedures performed on experimental animals. Zucker rats were purchased from the Monash University Central Animal Facility. Insulin and ISF401 were injected through the femoral vein while the rat was under anaesthesia (Pentobarbitone) and rats were humanely killed while still unconscious at the end of the procedure. The insulin concentration used for all in vivo experiments was 1 unit per kg of body weight. Blood was collected from the tail vein and glucose concentrations were measured using a Medisense glucometer. Insulin and C-peptide concentrations were measured in serum samples using a Linco Rat Insulin RIA kit according to the manufacturers instructions. Group sizes were between 5 and 8 rats per treatment.
To investigate sex differences in the insulin sensitizing effect of ISF402, age-matched male Zucker fa/fa rats were injected intravenously with ISF402 (1.5 mg/kg) and insulin as described above for female rats. […] In comparison, co-injection of ISF402 with the insulin led to a decrease in blood glucose 20 minutes after injection which remained low for a further 25 minutes (FIG. 13A). The greatest reduction in blood glucose was 0.98±0.31 mmol/L and was achieved 30 minutes after injection. […]

[4] = system: female Zucker fa/fa rats; assay: Oral ISF402 followed by intraperitoneal insulin tolerance test (IPITT) in female Zucker fa/fa rats; type: in vivo, rat
Experimental: Female Zucker fa/fa rats were purchased from Monash Animal Services (Monash University, Clayton, Australia). Rats were housed in the Biochemistry and Molecular Biology Animal House (Monash University, Victoria, Australia) and allowed to acclimatize for 7 days in an environmentally controlled room at 22° C. Rats were fed normal chow and water ad libitum. All experiments were performed according to Monash University Animal Care and Ethics Committee guidelines and approved by the Monash University Animal ethics committee. Rats of 16-18 weeks of age were fasted overnight with free access to water then anaesthetised with pentobarbitone (Nembutal, Phone Merieux, QLD, Australia) administered intraperitoneally (IP) at 35 mg/kg body weight. Blood glucose was monitored using Medisense glucometers (Abbott Laboratories, Abbott Park, Ill.) for one hour prior to administration of test substances. ISF402 was administered at 3 mg/kg by IP with 2 U/kg of bovine insulin (n=6) and controls were injected IP with insulin alone (n=8). Two experiments were performed where ISF402 was given orally. In the first experiment, controls were given saline orally by gavage (n=5) and the test group were given ISF402 orally at 15 mg/kg (n=5). After 15 minutes, insulin (2 U/kg) was injected IP. The procedure was repeated three days later with the control rats once again given saline and the treated rats given 30 mg/kg ISF402. A second experiment was performed on a separate group of rats where controls were given saline orally as before (n=5) and treated rats were given ISF402 orally at 30 mg/kg (n=5), followed 15 minutes later by IP injection of 2 U/kg insulin. For both experiments, after administration of peptide blood was collected from the tail vein and glucose measured immediately. Serum samples were also collected for later measurement of C-peptide and insulin using Linco Rat C-peptide and Insulin RIA kits according to the manufacturer's instructions (Linco Research Inc, St Charles, Mo.).

[5] = system: C2C12 mouse myotube cells; assay: Microphysiometry (extracellular acidification rate) in C2C12 cells; type: cell-based
Experimental: C2C12 mouse myotube cells were seeded onto supports and differentiated. The cells were then placed in a Cytosensor (Molecular Devices) in non-buffered pH sensitive RPMI 1640 media. Once the cells were equilibrated at 37° C. with RPMI 1640 media (zero control), ISF402, insulin or ZnCl2 at increasing concentrations were added for a duration of 20 minutes, for each treatment. The Cytosensor measured the changed in pH as a response of cells to the treatment.
The activity of the combination of insulin and ISF402 in insulin sensitisation was explored in C2C12 muscle cells using microphysiometry, a technique that measures extracellular acidification as an indicator of cell metabolism. An ISF402 concentration of 0.1 μM was used to test for sensitisation of insulin responsiveness as this concentration produces a sub-maximal (˜20%) response in C2C12 cells. In the presence of 0.1 μM ISF402, the cellular response to insulin was increased as shown by increasing extracellular acidification rate (ECAR) with increasing concentrations of insulin, particularly at low insulin concentrations (FIG. 3).

[6] = target: T1, insulin multimer (Bos taurus, UniProt P01317); assay: Gel filtration chromatography of insulin mixed with ISF402; type: biochemical
T1 construct: mixing insulin with ISF402 and separating molecular complexes by gel filtration chromatography
T1 sequence (P01317 25-54 limits assumed): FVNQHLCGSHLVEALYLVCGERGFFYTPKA
T1 sequence (P01317 85-105 limits assumed): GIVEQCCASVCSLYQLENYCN
Excerpt: The effect of ISF402 on the multimerisation of insulin was examined in vitro by mixing insulin with ISF402 and separating molecular complexes by gel filtration chromatography, which separates on the basis of size (FIG. 7).

[7] = Solubility of ISF402 at various pH and temperatures; type: physicochemical; details: for solubility at 24 h: 25 mM ammonium bicarbonate buffer
Experimental: Solid ISF402 was added to 50 μL aliquots of 25 mM ammonium bicarbonate buffer until no more solid dissolved. The total weight of the peptide added to each tube was noted and the pH of each solution was adjusted to approximately pH 8 by the addition of 1 M NaOH. Samples were incubated with constant shaking at either room temperature (23-25° C.) or 37° C. for 24 hours then centrifuged at 16000×g for 15 minutes. 2 μL aliquots of each supernatant were diluted with milliQ-H2O to an estimated concentration of 1 mg/mL. Samples were stored at −20° C. for later analysis by HPLC using UV detection (214 nm) to determine the exact concentration of ISF402. The pH of the remaining supernatant was measured. The pH was lowered by the addition of 2 μL of 5M HCl and tube contents were mixed and incubated under the two temperature conditions. The cycle of pH lowering, incubation and sampling was repeated until a pH of between 2 and 3 was achieved.

[8] = oral ISF402 followed by IP insulin injection
[9] = iv, ISF402 4.5 mg/kg without insulin

With “Insulin: Insulin (Bovine pancreas) containing 0.6% zinc, purchased from Sigma” the “Change in Serum Triglyceride levels compared to the 0 time point” value (“Change in Serum Triglyceride levels” for short) ([1]; Time 0 minutes) was 0 mg/dL, the “Change in Serum Triglyceride levels” value ([1]; Time 10 minutes) was “+39.6 ± 15.1 mg/dl” and the “Change in Serum Triglyceride levels” value ([1]; Time 45 minutes) was “+21.1 ± 23.9 mg/dl”. The “Change in Serum Triglyceride levels” value ([1]; Time 60 minutes) was “+33.3 ± 19.8 mg/dl”, the “blood glucose response to insulin alone” value ([1]; female rats, 1 U/kg of bovine insulin iv) was “small decrease in blood glucose” and the “maximum reduction in blood glucose” value ([1]; iv, insulin 1 U/kg + ISF402 1.5 mg/kg, or insulin alone at the same time point) was 0.68 ± 0.22 mmol/L. For the same molecule, the “blood glucose after insulin alone” value [2] was “only a small reduction in blood glucose” and the “blood glucose response to insulin alone” value [3] was “no decrease at all”.
With CC(C)[C@H](N)C(=O)N[C@@H](Cc1c[nH]cn1)C(=O)N[C@H](C(=O)N[C@@H](CC(=O)O)C(N)=O)[C@@H](C)O [ISF402, Val-His-Thr-Asp-NH2] (H-VHTD-NH2) the “blood glucose in IPITT compared to control” value ([4]; ISF402 15 mg/kg oral, insulin 2 U/kg IP 15 minutes later) was “did not reach statistical significance”, the “blood glucose in IPITT compared to the insulin-injected control group” value ([4]; ISF402 30 mg/kg oral to the same rats three days after 15 mg/kg) was “significant reduction in blood glucose” and the “time of greatest decrease in blood glucose after administration” value ([4]; oral 30 mg/kg ISF402, IPITT) was 2 h. The C-peptide concentrations [4, 8] was “did not change”, the circulating insulin concentrations [4, 8] was “did not change” and the “blood glucose in IPITT compared to control” value ([4]; single dose of 30 mg/kg ISF402 oral by gavage) was “significant decrease in blood glucose”. The “Change in Serum Triglyceride levels” value ([1]; Time 0 minutes) was 0 mg/dL, the “Change in Serum Triglyceride levels” value ([1]; Time 10 minutes) was “+11.3 ± 5.4 mg/dl” and the “Change in Serum Triglyceride levels” value ([1]; Time 45 minutes) was −16 ± 7.2^a mg/dl. For the same molecule, the “Change in Serum Triglyceride levels” value ([1]; Time 60 minutes) was “+44.9 ± 42.7 mg/dl”, the “maximum reduction in blood glucose” value ([1]; iv, ISF402 4.5 mg/kg without exogenous insulin) was 1.02 ± 0.27 mmol/L and the circulating insulin [1, 9] was “no observed increase in circulating insulin”. For the same molecule, the “serum C-peptide concentrations” value [1, 9] was “reduced”, the “optimum ISF402 dose” value ([1]; iv, co-injected with insulin 1 U/kg) was 1.5 mg/kg and the “optimal intravenous dose of ISF402” value ([1]; iv, without exogenous insulin) was 4.5 mg/kg. For the same molecule, the “glucose lowering response across the range of ISF402 doses” value ([1]; iv, 0.5-4.5 mg/kg with insulin, 3-10 mg/kg alone, AUC over 60 minutes (FIG. 2A)) was “dose dependent and bell shaped”, the “magnitude of the maximal reduction in blood glucose compared to controls” value ([1]; iv, ISF402 4.5 mg/kg vs saline, ISF402 1.5 mg/kg with insulin vs insulin alone) was 0.95 mmol/L and the “response in C2C12 cells (sub-maximal, extracellular acidification)” value ([5]; 0.1 μM ISF402) was ~20%. For the same molecule, the “cellular response to insulin (extracellular acidification rate, ECAR)” value ([5]; in the presence of 0.1 μM ISF402, increasing insulin concentrations) was “increased”, the “effect on the size of the insulin multimer” value [6] was “reduces the size of the insulin multimer” and the “elution volume of insulin when mixed with ISF402” value ([6]; insulin without pre-mixing eluted at 14-15 mL) was 16 to 17 mL. It also gave a solubility at 24 h ([7]; 37° C., pH 6, read-out: minimum solubility) of 179 mg/mL (≈ 381 mM), a solubility at 24 h ([7]; both at room temperature and 37° C., below pH 4.6 and above pH 6.9, read-out: solubility) of 300 to 450 mg/mL (≈ 639 to 958 mM) and a solubility at 24 h ([7]; room temperature, pH 6.3, read-out: lowest solubility) of 165 mg/mL (≈ 351 mM). The “pH of minimum solubility” value ([7]; both temperatures) was 5.7-6.3.
